Experimental data reported in patent publication US11344614B2, “Pharmaceutical compositions comprising dengue virus-specific multiple HLA-binding T cell epitopes” (priority 2018, dated 2022).
Peptide text beside a SMILES is read from it.

Tested on: CD8+ T cells
Conditions: healthy seronegative HLA-A2 donor CTLs, peptide pulsed or DENV-2 infected JY cells, FIG. 1; for secretion of granzyme B (cytotoxic activity): supernatant
Excerpt: FIG. 1. […] (A.) HLA-A2 restricted CTLs directed against the peptides (peptides are represented as first 3 residues of the sequence) were generated using peripheral blood from a seronegative donor. PBMCs containing the epitope specific CTLs were harvested, washed, and cultured with the peptide […] cells overnight in an IFN-gamma ELISpot assay. (B). Identical cultures were set up as in (A) but in 96 well round bottom plates. The next day, supernatant was harvested and used to detect cytolytic activity (B) and the cells were analyzed for the marker of degranulation, CD107a (C.)
Epitope specific CD8^+ T cells (CTLs) were generated as previously described. […] Two hours after pulsing, the non-adherent cells were added back into the plates in a cytokine rich medium of RPMI-1640 supplemented with IL-7 (5 ng/mL), GM-CSF (25 ng/mL), IL-4 (50 ng/mL), and keyhole limpet hemocyanin (5 ug/mL KLH; Sigma-Aldrich) and cultured at 37° C. at 5% CO2. T cells in the culture were restimulated two weeks after the initial stimulation with autologous PBMCs depleted of CD4^+ and CD8^+ T cells and pulsed with synthetic peptides (10 ug/mL) and β2-microglobulin (1.5 ug/mL). Restimulated cells were cultured in RPMI-1640 supplemented with IL-15 (5 ng/mL), GM-CSF (12.5 ng/mL) and IL-2 (10 U/mL) for 7 days. Restimulation was performed a total of three times prior to CTL functional assays. Unless otherwise specified, all cytokines and growth factors were purchased from eBiosciences (San Diego, Calif.).

CC[C@H](C)[C@H](NC(=O)[C@H](Cc1ccccc1)NC(=O)[C@H](C)N)C(=O)N[C@@H](C)C(=O)N[C@@H](Cc1ccccc1)C(=O)N[C@H](C(=O)N[C@@H](CCCNC(=N)N)C(=O)N[C@@H](Cc1ccccc1)C(=O)O)C(C)C [AFI] (H-AFIAFVRF-OH; N-terminus and C-terminus assumed)
degranulation marker CD107a (cytotoxic activity): upregulation of the degranulation marker CD107a
secretion of granzyme B (cytotoxic activity): secretion

CC[C@H](C)[C@H](NC(=O)[C@@H](NC(=O)[C@H](C)NC(=O)[C@H](CC(N)=O)NC(=O)[C@@H]1CCCN1C(=O)[C@@H](NC(=O)[C@H](CS)NC(=O)[C@H](CC(C)C)NC(=O)[C@H](CCSC)NC(=O)[C@H](C)N)[C@@H](C)CC)[C@@H](C)CC)C(=O)O [AML] (H-AMLCIPNAII-OH; N-terminus and C-terminus assumed)
degranulation marker CD107a (cytotoxic activity): upregulation of the degranulation marker CD107a
secretion of granzyme B (cytotoxic activity): secretion

CC[C@H](C)[C@H](NC(=O)[C@H](CCSC)NC(=O)[C@@H](NC(=O)[C@H](CC(N)=O)NC(=O)[C@@H]1CCCN1C(=O)[C@@H](NC(=O)[C@H](CS)NC(=O)[C@H](CC(C)C)NC(=O)[C@@H](N)CC(C)C)C(C)C)[C@@H](C)CC)C(=O)O [LLC] (H-LLCVPNIMI-OH; N-terminus and C-terminus assumed)
degranulation marker CD107a (cytotoxic activity): upregulation of the degranulation marker CD107a
secretion of granzyme B (cytotoxic activity): secretion

CC[C@H](C)[C@H](NC(=O)[C@@H](NC(=O)[C@@H](N)CCSC)[C@@H](C)CC)C(=O)N[C@H](C(=O)N[C@@H](CC(=O)O)C(=O)N[C@@H](CCC(=O)O)C(=O)N[C@@H](C)C(=O)N[C@@H](Cc1c[nH]cn1)C(=O)N[C@@H](Cc1ccccc1)C(=O)O)C(C)C [MII] (H-MIIVDEAHF-OH; N-terminus and C-terminus assumed)
degranulation marker CD107a (cytotoxic activity): upregulation of the degranulation marker CD107a
secretion of granzyme B (cytotoxic activity): secretion
